Data reported in article PMC7305075 (Cancer Chemotherapy and Pharmacology, 2020).
Like-named read-outs stand apart in the source and are kept apart here.

Assays:
[1] = Plasma pharmacokinetics of paracetamol, paracetamol glucuronide and paracetamol sulphate in rats (HPLC-UV, non-compartmental); type: in vivo, Wistar rats; conditions: for Cmax / ka (absorption rate constant): plasma, mean ± SD (CV %)
Procedure: The experimental protocol assuming involvement of animals in this study was reviewed and approved by the Local Ethics Committee, Poznań, Poland (no 61/2017). All procedures were performed in accordance with the European Union regulations concerning the handling and use of laboratory animals. Adult male Wistar rats (weight 480–530 g) were used in the study. The animals were maintained under standard breeding conditions with a 12/12 h light–dark cycle (lights on at 06.00, lights off at 18.00) at constant room temperature (23 ± 2 °C), relative humidity of 55 ± 10% and given ad libitum access to food and water. The animals were allowed to acclimatise for a week before the beginning of the experiments. The rats were divided into three groups. […] To make sure that the animals received the entire dose of the drug, 1 mL of 10% DMSO was then administered to rinse the probe. 100 µL of blood was collected from each rat by cutting off a piece of his tail. The blood samples were collected into heparinised test tubes at the following time points: 0, 0.5, 1, 2, 3, 4, 5, 6, 7, 8, 10, 12, 24, 30, 48, 72, 96 h. […] All the blood samples were centrifuged at 2.880 g for 10 min at 4 °C.
Separation was achieved by isocratic elution of the mobile phase, comprising sodium sulphate 0.05 M pH 2.2 (adjusted with 85% orthophosphoric acid) and acetonitrile (93:7, v/v), at a flow rate of 1.0 mL/min through an BDS Hypersil® C18 column (150 mm × 4.6 mm, 5.0 μm particle size) (Thermo Electron Corporation®, Waltham, MA, USA). The total time of analysis for each run was 10 min. The column temperature was maintained at 25 °C, the UV detection wavelength was set at 254 nm and the injection volume was 50 μL. Theophylline was used as the internal standard (IS).
The maximum plasma concentration (Cmax) and the time to reach the Cmax (tmax) were derived directly from the observed plasma concentrations. The total area under the concentration–time curve (AUC) was estimated by the trapezoidal rule with extrapolation from time zero to infinity (AUC0-∞). The elimination half-life (t0.5) was estimated from ln2/kel. The apparent plasma drug clearance (Cl/F) was calculated by dividing the dose (D) by the AUC0-∞. The apparent volume of distribution (Vd/F) was estimated from D/(kel × AUC0-∞).

[2] = cited from earlier work
[3] = parameters: method as in PMID 26739624; conditions: ref [24], cited from earlier work
[4] = Plasma pharmacokinetics of sorafenib and sorafenib N-oxide in rats (HPLC-UV, non-compartmental); type: in vivo, Wistar rats; conditions: mean ± SD (CV %)
Procedure: The experimental protocol assuming involvement of animals in this study was reviewed and approved by the Local Ethics Committee, Poznań, Poland (no 61/2017). All procedures were performed in accordance with the European Union regulations concerning the handling and use of laboratory animals. Adult male Wistar rats (weight 480–530 g) were used in the study. The animals were maintained under standard breeding conditions with a 12/12 h light–dark cycle (lights on at 06.00, lights off at 18.00) at constant room temperature (23 ± 2 °C), relative humidity of 55 ± 10% and given ad libitum access to food and water. The animals were allowed to acclimatise for a week before the beginning of the experiments. The rats were divided into three groups. […] To make sure that the animals received the entire dose of the drug, 1 mL of 10% DMSO was then administered to rinse the probe. 100 µL of blood was collected from each rat by cutting off a piece of his tail. The blood samples were collected into heparinised test tubes at the following time points: 0, 0.5, 1, 2, 3, 4, 5, 6, 7, 8, 10, 12, 24, 30, 48, 72, 96 h. […]
The maximum plasma concentration (Cmax) and the time to reach the Cmax (tmax) were derived directly from the observed plasma concentrations. […] The apparent plasma drug clearance (Cl/F) was calculated by dividing the dose (D) by the AUC0-∞. […]

[5] = cited from earlier work; remark: listed apart in the source
[6] = in vitro study; ref [42]; cited from earlier work
UGT2B15 = system: UGT2B15; parameters: method as in Liu et al. [26]; conditions: in vitro, recombinant UDP-glucuronyl transferases and liver microsomes, paracetamol glucuronidation; ref Liu et al. [26]; cited from earlier work
UGT1A9 = conditions: cited from earlier work
UGT1A1 = conditions: in vitro studies; ref [21]; cited from earlier work
[7] = parameters: method as in Karbownik et al. [36]–[38]; conditions: in vivo; ref Karbownik et al. [36]–[38]; cited from earlier work
[8] = parameters: method as in Karbownik et al. [36], [37]; conditions: ref Karbownik et al. [36], [37]; cited from earlier work
[9] = IS+PA group (with sorafenib) vs. IIIPA group
[10] = single oral paracetamol 100 mg/kg b.w. + sorafenib 100 mg/kg b.w. (IS+PA group)
[11] = single oral paracetamol 100 mg/kg b.w. alone (IIIPA group)
[12] = analogous dose (100 mg/kg) orally, ref Mekjaruskul et al. [35]
[13] = single dose 100 mg/kg orally, ref Pingili et al. [34]
[14] = in vitro, recombinant UDP-glucuronyl transferases and liver microsomes, paracetamol glucuronidation, ref Liu et al. [26]

CC(=O)Nc1ccc(O[C@@H]2O[C@H](C(=O)O)[C@@H](O)[C@H](O)[C@H]2O)cc1 [Paracetamol glucuronide, paracetamol glucuronide]
decrease in AUC0-∞ [1, 9]: 42% | reduction in Cmax [1, 9]: 48% | Cmax [1, 10]: 19830 ng/mL | Cmax [1, 11]: 38380 ng/mL

CC(=O)Nc1ccc(O)cc1 [Paracetamol]
increase in AUC0-∞ [1, 9]: 71% | increase in Cmax [1, 9]: 33% | ka (absorption rate constant) [1, 10]: 2.09 ± 1.11 h⁻¹ | ka (absorption rate constant) [1, 11]: 2.35 ± 0.99 h⁻¹ | Cmax [2, 12]: 19100 ng/mL | t0.5 [2, 12]: 21.29 min | tmax [2, 12]: 1.0 h | Cmax [2, 13]: 5040 ng/mL | t0.5 [2, 13]: 266 min | tmax [2, 13]: 1.16 h | fraction conjugated with cysteine ([3]; metabolism in the liver): 3% | fraction conjugated with glucuronic acid ([3]; metabolism in the liver): 60% | fraction conjugated with sulphuric acid ([3]; metabolism in the liver): 30% | fraction N-hydroxylated through cytochrome P-450 (CYP2E1) to NAPQI [3]: 5–10%

CNC(=O)c1cc(Oc2ccc(NC(=O)Nc3ccc(Cl)c(C(F)(F)F)c3)cc2)cc[n+]1[O-] [Sorafenib N-oxide, sorafenib N-oxide]
tmax [4, 10]: 15.5 h | tmax ([4]; single oral sorafenib 100 mg/kg b.w. alone (IIS group)): 16.3 h

CNC(=O)c1cc(Oc2ccc(NC(=O)Nc3ccc(Cl)c(C(F)(F)F)c3)cc2)ccn1 [Sorafenib]
Cmax ([5]; ref Wang [27]): 230.86 ng/mL | tmax ([5]; ref Wang [27]): 8.14 h | Cmax ([5]; ref Wang [39]): 338 ng/mL | binding to human plasma proteins [6]: 99.8% | inhibition of UGT2B15 (UGT2B15): inhibited | inhibition of UGT1A9 (UGT1A9; in vitro studies, ref [21]): particularly inhibits | inhibition of UGT1A9 (UGT1A9; [14]): inhibited | inhibition of UGT1A1 (UGT1A1): particularly inhibits

Cc1nc(Nc2ncc(C(=O)Nc3c(C)cccc3Cl)s2)cc(N2CCN(CCO)CC2)n1 [dasatinib]
inhibition of UGT2B15 (UGT2B15): inhibited | inhibition of UGT1A9 (UGT1A9; [14]): inhibited

C#Cc1cccc(Nc2ncnc3cc(OCCOC)c(OCCOC)cc23)c1 [erlotinib]
decrease of the AUC0-∞ of paracetamol after administration of the TKI [7]: 35.5% | drop of the Cmax of paracetamol after administration of the TKI [7]: 18.9% | increase in AUC0-t of the TKI on co-administration with paracetamol [8]: 31% | increase in Cmax of the TKI on co-administration with paracetamol [8]: 88%

CS(=O)(=O)CCNCc1ccc(-c2ccc3ncnc(Nc4ccc(OCc5cccc(F)c5)c(Cl)c4)c3c2)o1 [lapatinib]
decrease of the AUC0-∞ of paracetamol after administration of the TKI [7]: 48.8% | drop of the Cmax of paracetamol after administration of the TKI [7]: 55.7% | increase in AUC0-t of the TKI on co-administration with paracetamol [8]: 240% | increase in Cmax of the TKI on co-administration with paracetamol [8]: 184%

CCN(CC)CCNC(=O)c1c(C)[nH]c(/C=C2\C(=O)Nc3ccc(F)cc32)c1C [sunitinib]
decrease of the AUC0-∞ of paracetamol after administration of the TKI [7]: 68.19% | drop of the Cmax of paracetamol after administration of the TKI [7]: 63.95%
